Values of other authors, collected in patent US20150030676A1, “STABLIZED MODIFIED RELEASE FOLIC ACID DERIVATIVE COMPOSITION, ITS THERAPEUTIC USE AND METHODS OF MANUFACTURE” (APTALIS PHARMATECH, INC., priority 2013, published 2015).

Settings: in vivo

6(S)-5-methyltetrahydrofolate [L-methylfolate]
plasma elimination half life: about 3 hours
